Literature values, collected in patent publication US20080160065A1 (priority 2006, published 2008).
Like-named read-outs stand apart in the source and are kept apart here.

Conditions: injected intramuscularly

## CCC[C@@H]1C[C@@H](C(=O)N[C@@H]([C@H]2O[C@H](SC)[C@H](O)[C@@H](O)[C@H]2O)[C@H](C)Cl)N(C)C1 [clindamycin]
adults
  time to peak plasma concentration: 2 h
children
  time to peak plasma concentration: 1 h
